According to patent US20010018445A1, “Pharmaceutical composition for the treatment of hepatocellular carcinoma” (TTY BIOPHARM COMPANY LIMITED, priority 2000, published 2001):

Tests used:
[1] = in water, methanol, ethanol or acetone; cited from earlier work
hepatocellular carcinoma [2] = type: in vivo, human
Method: FIGS. 1-4 show computerized abdominal tomography of a patient, before and after, treatment with thalidomide. […] The serum level of alpha-fetoprotein in the patient is 4335 μg/ml. […] The massive type index lesion at the left hepatic lobe shown in FIG. 3 has been reduced to the size of 3 cm×3 cm. The serum level of alpha-fetoprotein in the patient is 1501 μg/ml. In addition, the scan show the occurrence of ascitic fluid.
A patient weighted 55 kg with medical history of hepatitis C was diagnosed with hepatocellular carcinoma in December 1998 and treated with transcatheter arterial chemoembolization. They were treated with transcatheter arterial chemoembolization again in March and June 1999. According to the computerized abdominal tomography and gastrointestinal track barium enema, hepatocellular carcinoma invasion of the right colon and duodenum was doubted. The patient was treated with radiation on the right liver lobe during July to September 1999. After one-month of treatment, the serum level of alpha-fetoprotein in the patient increased from 105 μg/ml, before treatment, to 535 μg/ml. […] The patient was treated with a forth transcatheter arterial chemoembolization. The serum level of alpha-fetoprotein in the patient was increased to 1572 μg/ml.
The serum level of alpha-fetoprotein in the patient was up to 4335 μg/ml. The liver function exacerbated that the total bilirubin was […], GOT/GPT was 253/115 IU and alkaline phosphase (ALP) was 239 unit/l. […] A capsule containing 100 mg of thalidomide was orally administered to the patient twice daily during the thalidomide treatment. […] However, ascitic fluid was found. The abdominal paracentesis evidenced that ascitic fluid was caused by spontaneous bacterial peritonitis. […] The patient was then administered with antibiotics for the treatment of spontaneous bacterial peritonitis. The patient was still treated with thalidomide to the present.

angiogenesis = conditions: U.S. Pat. Nos. 5,593,990 and 5,629,327; cited from earlier work
hepatocellular carcinoma [3] = experiment: Thalidomide treatment of two patients with metastatic and locally advanced hepatocellular carcinoma (Example 3); type: in vivo, human; conditions: thalidomide 100 mg twice daily
Method: Thalidomide was administered 100 mg twice daily. They were subjected to serum alpha-fetoprotein test every 2-4 weeks and computed tomography or magnetic resonance image examination every 4-8 weeks.

hepatocellular carcinoma [4] = experiment: Clinical observation of thalidomide in hepatocellular carcinoma, summary statement on side effects; type: in vivo, human; conditions: patients with metastatic hepatocellular carcinoma or where local treatment has failed
Excerpt: The subject invention utilizes thalidomide to treat metastatic hepatocellular carcinoma and hepatocellular carcinoma, where local treatment has failed.
The therapeutic efficacy of the pharmaceutical composition of the subject invention comprising thalidomide on the treatment of hepatocellular carcinoma has been supported by clinical observation as illustrated in the following examples.

[5] = tested on: basic fibroblast growth factor-induced angiogenesis; conditions: Anti-Cancer Drugs, 1996, 7, p.339-343; cited from earlier work
[6] = tested on: tumor necrotic factor-alpha (TNF-I); conditions: Journal of Infectious Diseases, 1993, 168, p. 408-414; cited from earlier work
[7] = women who took thalidomide in the first trimester of pregnancy; cited from earlier work
[8] = after treatment with thalidomide

alkaline phosphase (ALP) (hepatocellular carcinoma [2]; human, in vivo): 233 unit/l
SMILES: O=C1CCC(N2C(=O)c3ccccc3C2=O)C(=O)N1 (stereo not shown) [thalidomide, 2-(2,6-dioxo-3-piperidinyl)-1H-isoindolle-1,3(2H)-dione]
solubility [1]: sparingly soluble | hepatocellular carcinoma of the two liver lobes on follow-up MRI (hepatocellular carcinoma [2]; after four weeks of treatment): significantly remitted | most diffused hepatocellular carcinoma infiltrating left and right hepatic lobes (computerized abdominal tomography) (hepatocellular carcinoma [2]; [8]): disappear | variation of the serum level of alpha-fetoprotein (FIG. 5) (hepatocellular carcinoma [2]; [8]): significantly decreased | right upper quadrant tenderness (hepatocellular carcinoma [2]; after two weeks of treatment, 100 mg orally twice daily): significantly relieved | serum level of alpha-fetoprotein (hepatocellular carcinoma [2]; one patient, 100 mg thalidomide capsule orally twice daily, after four weeks, 4335 μg/ml before treatment): 1501 µg/mL | inhibition of angiogenesis (angiogenesis): could effectively inhibit | serum alpha-fetoprotein level (FIGS. 6 and 7) (hepatocellular carcinoma [3]): significant reduced | side effects, such as arrest of bone marrow or hepatotoxicity (hepatocellular carcinoma [4]): without significant side effects | inhibition of basic fibroblast growth factor-induced angiogenesis [5]: could effectively inhibit | inhibition of tumor necrotic factor-alpha (TNF-I) [6]: could effectively inhibit | teratogenic effect [7]: would deliver terata, such as phocomelia
